The molecules below were run against human IRAK4 (Homo sapiens (Human), UniProt Q9NWZ3) (assay: IRAK4 kinase inhibition, Transcreener fluorescence polarization ADP assay). Settings: recombinant full-length His6-IRAK4; 125 uM ATP; 90 min; Ki computed using ATP Km 642 uM.
Format: biochemical
Procedure: Compounds were assayed for inhibition of human IRAK4 and IRAK1 catalytic activity using recombinant enzyme produced from insect cells. Full-length IRAK4 protein, carrying an N-terminal His6-Tag, was obtained from Life Technologies (Carlsbad, Calif., USA). The IRAK1 construct was produced internally and was comprised of IRAK1 residues Arg194 to Ser712, preceded by an NH2-terminal His6 tag and the coding sequence for glutathione-S-transferase.

human IRAK4, sequence (Q9NWZ3 whole entry): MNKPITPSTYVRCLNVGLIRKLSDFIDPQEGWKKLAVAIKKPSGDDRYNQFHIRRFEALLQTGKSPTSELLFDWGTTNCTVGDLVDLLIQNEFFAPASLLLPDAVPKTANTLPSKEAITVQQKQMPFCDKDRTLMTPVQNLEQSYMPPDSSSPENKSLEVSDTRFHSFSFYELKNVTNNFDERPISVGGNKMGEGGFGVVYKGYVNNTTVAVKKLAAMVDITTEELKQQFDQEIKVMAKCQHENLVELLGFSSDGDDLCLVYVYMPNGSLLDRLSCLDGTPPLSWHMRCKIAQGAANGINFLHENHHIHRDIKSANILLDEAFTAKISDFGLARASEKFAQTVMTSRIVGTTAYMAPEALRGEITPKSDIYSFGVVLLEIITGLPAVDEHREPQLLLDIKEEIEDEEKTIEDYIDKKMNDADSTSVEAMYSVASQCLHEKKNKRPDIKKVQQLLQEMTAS

Ki	SMILES
4.4 nM	CC1(C)Cc2cc(NC(=O)c3cnn4cccnc34)c(N3CCN(CCC#N)CC3)cc2O1 [Example 457, N-(6-(4-(2-cyanoethyl)piperazin-1-yl)-2,2-dimethyl-2,3-dihydrobenzofuran-5-yl)pyrazolo[1,5-a]pyrimidine-3-carboxamide]
37 nM	CC1(C)Cc2cc(NC(=O)c3cnn4cccnc34)c(N3CCN(CC4CC4)CC3)cc2O1 [Example 458, N-(6-(4-(cyclopropylmethyl)piperazin-1-yl)-2,2-dimethyl-2,3-dihydrobenzofuran-5-yl)pyrazolo[1,5-a]pyrimidine-3-carboxamide]
16 nM	Cc1noc(CN2CCN(c3cc4c(cc3NC(=O)c3cnn5cccnc35)CC(C)(C)O4)CC2)n1 [Example 459, N-(2,2-dimethyl-6-(4-((3-methyl-1,2,4-oxadiazol-5-yl)methyl)piperazin-1-yl)-2,3-dihydrobenzofuran-5-yl)pyrazolo[1,5-a]pyrimidine-3-carboxamide]
5.9 nM	Cn1cc(CN2CCN(c3cc4c(cc3NC(=O)c3cnn5cccnc35)CC(C)(C)O4)CC2)cn1 [Example 460, N-(2,2-dimethyl-6-(4-((1-methyl-1H-pyrazol-4-yl)methyl)piperazin-1-yl)-2,3-dihydrobenzofuran-5-yl)pyrazolo[1,5-a]pyrimidine-3-carboxamide]
29 nM	Cc1nc(CN2CCN(c3cc4c(cc3NC(=O)c3cnn5cccnc35)CC(C)(C)O4)CC2)no1 [Example 461, N-(2,2-dimethyl-6-(4-((5-methyl-1,2,4-oxadiazol-3-yl)methyl)piperazin-1-yl)-2,3-dihydrobenzofuran-5-yl)pyrazolo[1,5-a]pyrimidine-3-carboxamide]
6.5 nM	CC1(C)Cc2cc(NC(=O)c3cnn4cccnc34)c(N3CCN(CCn4cccn4)CC3)cc2O1 [Example 462, N-(6-(4-(2-(1H-pyrazol-1-yl)ethyl)piperazin-1-yl)-2,2-dimethyl-2,3-dihydrobenzofuran-5-yl)pyrazolo[1,5-a]pyrimidine-3-carboxamide]
25 nM	Cc1nnc(CN2CCN(c3cc4c(cc3NC(=O)c3cnn5cccnc35)CC(C)(C)O4)CC2)o1 [Example 463, N-(2,2-dimethyl-6-(4-((5-methyl-1,3,4-oxadiazol-2-yl)methyl)piperazin-1-yl)-2,3-dihydrobenzofuran-5-yl)pyrazolo[1,5-a]pyrimidine-3-carboxamide]
67 nM	CC1(C)Cc2cc(NC(=O)c3cnn4cccnc34)c(N3CCN(CC4CCOCC4)CC3)cc2O1 [Example 464, N-(2,2-dimethyl-6-(4-((tetrahydro-2H-pyran-4-yl)methyl)piperazin-1-yl)-2,3-dihydrobenzofuran-5-yl)pyrazolo[1,5-a]pyrimidine-3-carboxamide]
38 nM	COCCCN1CCN(c2cc3c(cc2NC(=O)c2cnn4cccnc24)CC(C)(C)O3)CC1 [Example 465, N-(6-(4-(3-methoxypropyl)piperazin-1-yl)-2,2-dimethyl-2,3-dihydrobenzofuran-5-yl)pyrazolo[1,5-a]pyrimidine-3-carboxamide]
99 nM	CC1(C)Cc2cc(NC(=O)c3cnn4cccnc34)c(N3CCN(CC4CCC4)CC3)cc2O1 [Example 466, N-(6-(4-(cyclobutylmethyl)piperazin-1-yl)-2,2-dimethyl-2,3-dihydrobenzofuran-5-yl)pyrazolo[1,5-a]pyrimidine-3-carboxamide]
13 nM	CC1(C)Cc2cc(NC(=O)c3cnn4cccnc34)c(N3CCN(C4CCNC4=O)CC3)cc2O1 (stereo not shown) [Example 467, N-(2,2-dimethyl-6-(4-(2-oxopyrrolidin-3-yl)piperazin-1-yl)-2,3-dihydrobenzofuran-5-yl)pyrazolo[1,5-a]pyrimidine-3-carboxamide]
5.1 nM	CC1(C)Cc2cc(NC(=O)c3cnn4cccnc34)c(N3CCN(CC4CCC(=O)N4)CC3)cc2O1 (stereo not shown) [Example 468, N-(2,2-dimethyl-6-(4-((5-oxopyrrolidin-2-yl)methyl)piperazin-1-yl)-2,3-dihydrobenzofuran-5-yl)pyrazolo[1,5-a]pyrimidine-3-carboxamide]
8.8 nM	CC1(C)Cc2cc(NC(=O)c3cnn4cccnc34)c(N3CCN(CC(O)CO)CC3)cc2O1 (stereo not shown) [Example 469, N-(6-(4-(2,3-dihydroxypropyl)piperazin-1-yl)-2,2-dimethyl-2,3-dihydrobenzofuran-5-yl)pyrazolo[1,5-a]pyrimidine-3-carboxamide]
12 nM	CC1(C)Cc2cc(NC(=O)c3cnn4cccnc34)c(N3CCN(CCN4CCCC4=O)CC3)cc2O1 [Example 470, N-(2,2-dimethyl-6-(4-(2-(2-oxopyrrolidin-1-yl)ethyl)piperazin-1-yl)-2,3-dihydrobenzofuran-5-yl)pyrazolo[1,5-a]pyrimidine-3-carboxamide]
6.5 nM	CC1(C)Cc2cc(NC(=O)c3cnn4cc(CO)cnc34)c(N3CCOCC3)cc2O1 [Example 471, N-(2,2-dimethyl-6-morpholino-3H-benzofuran-5-yl)-6-(hydroxymethyl)pyrazolo[1,5-a]pyrimidine-3-carboxamide]
2.5 nM	C[C@H](C(N)=O)N1CCN(c2cc3c(cc2NC(=O)c2cnn4cccnc24)CC(C)(C)O3)CC1 [Example 472, N-[6-[4-[(1R)-2-amino-1-methyl-2-oxo-ethyl]piperazin-1-yl]-2,2-dimethyl-3H-benzofuran-5-yl]pyrazolo[1,5-a]pyrimidine-3-carboxamide]

Ki	SMILES
5 nM	C[C@@H](C(N)=O)N1CCN(c2cc3c(cc2NC(=O)c2cnn4cccnc24)CC(C)(C)O3)CC1 [Example 473, N-[6-[4-[(1S)-2-amino-1-methyl-2-oxo-ethyl]piperazin-1-yl]-2,2-dimethyl-3H-benzofuran-5-yl]pyrazolo[1,5-a]pyrimidine-3-carboxamide]
20 nM	C[C@H](O)CN1CCN(c2cc3c(cc2NC(=O)c2cnn4cccnc24)CC(C)(C)O3)CC1 [Example 474, (S)-N-(6-(4-(2-hydroxypropyl)piperazin-1-yl)-2,2-dimethyl-2,3-dihydrobenzofuran-5-yl)pyrazolo[1,5-a]pyrimidine-3-carboxamide]
9.5 nM	C[C@@H](O)CN1CCN(c2cc3c(cc2NC(=O)c2cnn4cccnc24)CC(C)(C)O3)CC1 [Example 475, (R)-N-(6-(4-(2-hydroxypropyl)piperazin-1-yl)-2,2-dimethyl-2,3-dihydrobenzofuran-5-yl)pyrazolo[1,5-a]pyrimidine-3-carboxamide]
33 nM	CC(C)(N)CN1CCN(c2cc3c(cc2NC(=O)c2cnn4cccnc24)CC(C)(C)O3)CC1 [Example 476, N-(6-(4-(2-amino-2-methylpropyl)piperazin-1-yl)-2,2-dimethyl-2,3-dihydrobenzofuran-5-yl)pyrazolo[1,5-a]pyrimidine-3-carboxamide]
35 nM	C[C@@H](N)CN1CCN(c2cc3c(cc2NC(=O)c2cnn4cccnc24)CC(C)(C)O3)CC1 [Example 477, N-[6-[4-[(2R)-2-Aminopropyl]piperazin-1-yl]-2,2-dimethyl-3H-benzofuran-5-yl]pyrazolo[1,5-a]pyrimidine-3-carboxamide]
6 nM	C[C@H](N)CN1CCN(c2cc3c(cc2NC(=O)c2cnn4cccnc24)CC(C)(C)O3)CC1 [Example 478, N-[6-[4-[(2S)-2-Aminopropyl]piperazin-1-yl]-2,2-dimethyl-3H-benzofuran-5-yl]pyrazolo[1,5-a]pyrimidine-3-carboxamide]
6.7 nM	Cc1oc(=O)[nH]c1CN1CCN(c2cc3c(cc2NC(=O)c2cnn4cccnc24)CC(C)(C)O3)CC1 [Example 479, N-[2,2-Dimethyl-6-[4-[(5-methyl-2-oxo-3H-oxazol-4-yl)methyl]piperazin-1-yl]-3H-benzofuran-5-yl]pyrazolo[1,5-a]pyrimidine-3-carboxamide]
350 nM	CC(C)N1Cc2cc(NC(=O)c3cnn4ccc(C(F)F)nc34)c(N3CCOCC3)cc2C1=O [Example 484, 5-(Difluoromethyl)-N-(2-isopropyl-6-morpholino-1-oxo-isoindolin-5-yl)pyrazolo[1,5-a]pyrimidine-3-carboxamide]
66 nM	CC(C)N1Cc2cc(NC(=O)c3cnn4cc(C#N)cnc34)c(N3CCOCC3)cc2C1=O [Example 485, 6-cyano-N-(2-isopropyl-6-morpholino-1-oxo-isoindolin-5-yl)pyrazolo[1,5-a]pyrimidine-3-carboxamide]
37 nM	CC(C)N1Cc2cc(NC(=O)c3cnn4cc(C(N)=O)cnc34)c(N3CCOCC3)cc2C1=O [Example 486, N3-(2-isopropyl-6-morpholino-1-oxo-isoindolin-5-yl)pyrazolo[1,5-a]pyrimidine-3,6-dicarboxamide]
0.61 nM	CC(C)(O)[C@H](F)CN1Cc2cc(NC(=O)c3cnn4cccnc34)c(C3CC3)cc2C1=O [Example 487, N-[6-Cyclopropyl-2-[(2R)-2-fluoro-3-hydroxy-3-methyl-butyl]-1-oxo-isoindolin-5-yl]pyrazolo[1,5-a]pyrimidine-3-carboxamide]
610 nM	Cn1cnc(-c2cc3c(cc2NC(=O)c2cnn4cccnc24)CC(C)(C)O3)c1 [Example 488, N-[2,2-Dimethyl-6-(1-methylimidazol-4-yl)-3H-benzofuran-5-yl]pyrazolo[1,5-a]pyrimidine-3-carboxamide]
240 nM	Cn1ccc(-c2cc3c(cc2NC(=O)c2cnn4cccnc24)CC(C)(C)O3)n1 [Example 489, N-(2,2-dimethyl-6-(1-methyl-1H-pyrazol-3-yl)-2,3-dihydrobenzofuran-5-yl)pyrazolo[1,5-a]pyrimidine-3-carboxamide]
980 nM	CC1(C)Cc2cc(NC(=O)c3cnn4cc(C5CNC5)cnc34)c(N3CCOCC3)cc2O1 [Example 490, 6-(Azetidin-3-yl)-N-(2,2-dimethyl-6-morpholino-3H-benzofuran-5-yl)pyrazolo[1,5-a]pyrimidine-3-carboxamide]
1.1 nM	CC1(C)Cc2cc(NC(=O)c3cnn4cc(C(N)=O)cnc34)c(N3CCOCC3)cc2O1 [Example 491, N^3-(2,2-dimethyl-6-morpholino-2,3-dihydrobenzofuran-5-yl)pyrazolo[1,5-a]pyrimidine-3,6-dicarboxamide]
